Test results reported in patent publication US20100035793A1, “Modulators” (priority 2005, published 2010).
Non-standard residues stand in square brackets, D forms with d. No end group written: not given here. pY = N[C@@H](Cc1ccc(OP(=O)(O)O)cc1)C(=O)O

How the values were obtained:
Stat3 [1] = biological target: T1, Stat3 (Homo sapiens, UniProt P40763); conditions: cited from earlier work
JAK2 = JAK2 (Homo sapiens, UniProt O60674); conditions: cited from earlier work
breast carcinoma cells = conditions: cited from earlier work
Stat3 [2] = biological target: T1, Stat3; conditions: cited from earlier work; remark: listed apart in the source
Stat3 [3] = biological target: T1, Stat3; conditions: cited from earlier work; for levels of DNA binding activities of STAT 3: peptide present in nuclear extracts
STAT 5 = conditions: peptide present in nuclear extracts; cited from earlier work
Stat3 [4] = assay: Western blot of Stat3 expression in packaging cells transfected with Stat3 siRNA vectors; set-up: species or system human; conditions: 293T-based amphotropic packaging cell line, FIG. 5A left panel
Text: Retroviral Stat3 siRNA. Four different targets designed against STAT 3 were selected and cloned into BglII and XhoI into pSUPER.retro.puro from OligoEngine, and sequenced (STAT 3 Genbank Accession number NM_139276). The four targets are named STAT 3 siRNA 1 (nt. 461-480) SEQ ID 1, STAT 3 siRNA 2 (nt. 1264-1283) SEQ ID 2, STAT 3 siRNA 3 (nt. 364-383) GATTGGGCATATGCGGCCA, and STAT 3 siRNA 4 (nt. 1662-1681) SEQ ID 3. The corresponding primers with a 9-nt short hairpin in the middle (bold) are
(§1) These vectors containing Stat3 siRNA targets and empty vector were transfected into 293T-based Phoenix-Ampho packaging cell line for 7-9 h, and the amphotropic retroviruses were harvested 48 h later, pelleted to remove nonadherent cells and cellular debris, and filtered through a […] cellulose acetate membrane. The keloid fibroblasts were infected overnight in the presence of 4 μg/ml polybrene, and replaced with fresh 10% FBS/DMEM the following day. Cells were assayed for Western blot 48 h after infection, or for XTT cell proliferation, or for migration assay which was performed by replating the cells into 8 μM Transwell membrane and fixed 24 h later as described above.
(§2) Western blot. Cells were either harvested in radioimmune precipitation assay (RIPA) buffer (150 mM NaCl, 50 mM Tris-HCl, pH 7.2, 1% deoxycholic acid, 1% Triton X-100, 0.25 mM EDTA, pH 8.0) containing protease inhibitor cocktail (Roche Diagnostics Corporation, Indianapolis, Ind., USA), or lysis buffer containing 150 mM NaCl, 10 mM Tris-HCl, pH 7.4, 0.5% Triton-X-100, 0.5% NP-40, 1 mM EDTA, 0.2 mM sodium vanadate, supplemented with protease inhibitor tablet. Total cell lysates were collected after centrifugation for 10 min at 4° C., and resolved in 7.5% or 10% polyacrylamide gel electrophoresis, and transferred to PVDF membranes (Bio-Rad Laboratories, Hercules, Calif., USA). The membranes were blotted with anti-phosphoTyr705 Stat3 antibody (1:1000 dilution; Cell Signaling, Beverly, Mass., USA) overnight at 4° C. overnight in PBS containing 1% BSA and 0.1% Tween 20, washed with PBS containing 0.2% Tween 20, and incubated with secondary anti-rabbit IgG antibody (1:2000 dilution; Sigma, Saint Louis, Mo., USA) for 1 h at room temperature, washed with PBS containing 0.2% Tween 20, followed by enhanced chemiluminescence (Amersham Biosciences, Buckinghamshire, UK) or Lumi-Light (Roche Diagnostics Corporation, Indianapolis, USA), and autoradiography. The membranes were stripped with Restore Western Blotting Stripping Buffer (Pierce, Rockford, Ill., USA) according to manufacturer's instructions and reblotted with anti-phosphoSer727 Stat3 (1:1000 dilution; Cell Signaling, Beverly, Mass., USA) and secondary anti-mouse IgG antibody (1:2000 dilution; Sigma, Saint Louis, Mo., USA). […]

KF48 keloid fibroblasts [5] = assay: Transwell migration assay; format: cell-based, human; conditions: KF48 infected with Stat3 siRNA retrovirus, vs vector
Description: as §1
Migration assay was also performed using the Transwell 8.0 μM pore size polycarbonate membrane (Corning Inc.). 1×10^4 cells/well were seeded at the top of the insert in 0.2 ml serum-free DMEM, with 0.5 ml 10% FBS/DMEM in the bottom chamber as chemoattractant. 24 h later, cells were washed once in cold PBS, before fixing with 4% paraformaldehyde in PBS for 15 min at room temperature. Cells were permeabilized with 0.1% Triton X-100 in PBS for 3 min at room temperature, and stained with haematoxylin for 10 min at room temperature, followed by destain with water thrice. Cells from the top of the inserts were removed by cotton swabs, and inserts were left to dry. The inserts were mounted onto slides and three non-overlapping fields of cells migrated to the bottom of the inserts were captured using Leica DM4000 B microscope.

collagen = assay: Western blot of collagen production in KF48 keloid fibroblasts; format: cell-based, human; conditions: KF48 infected with retroviral Stat3 siRNAs, FIG. 5A right panel
Description: as §1
Inhibition of Stat3 was also evaluated by incubating KF48 for 30 min with various doses of Cucurbitacin I, an inhibitor of Jak2/Stat3 activation (32), or with DMSO alone as a control, followed by further incubation in normal growth media for 48 h. […] Cucurbitacin I was acquired from Galchimia (A Corufia, Spain).
as §2, with “autoradiography.” for “autoradiography. The membranes were stripped with Restore Western Blotting Stripping Buffer (Pierce, Rockford, Ill., USA) according to manufacturer's instructions and reblotted with anti-phosphoSer727 Stat3 (1:1000 dilution; Cell Signaling, Beverly, Mass., USA) and secondary anti-mouse IgG antibody (1:2000 dilution; Sigma, Saint Louis, Mo., USA).”
Methods of assessing polypeptides regulated by STAT Collagen may be regulated by STAT 3 activation. monoclonal anti-human collagen I, II, III Was purchased from MONOSAN (Uden, Netherlands). […] These were detected via western blot as described above.

KF48 keloid fibroblasts [6] = assay: Scratch-wound migration assay; format: cell-based, human; conditions: KF48 infected with Stat3 siRNA retrovirus, 15 h after wounding, vs vector
Description: Cell migration in keloidflbroblasts is inhibited by Stat3 siRNA and Cucurbitacin I. To examine the role of Stat3 in cell migration of skin fibroblasts, KF48 cells were infected with retrovirus expressing Stat3 siRNAs and scratch assays were performed as previously described. […] Three non-overlapping fields were acquired, and graphically illustrated as mean±SD in FIG. 8B. Transmembrane cell migration assays were also performed in triplicates as described earlier, and quantified as mean±SD (FIG. 8C). […] The right panels in FIG. 8B and 8C depict immunoblots of Stat3 and actin to show the efficiencies of inhibition by the Stat3 siRNAs.
The role of Stat3 in cell migration was also examined using Cucurbitacin I in the scratch assay. KF48 cells were first incubated with 10 μg/ml mitomycin C for 2 h, before treating for 30 min with DMSO or 1 μM Cucurbitacin I. The scratch-wound was performed, followed by further incubation in normal growth media. Pictures were taken at 0 h, 22 h and 48 h after wounding.
Migration assay. For migration assay using the scratch method, cells were grown to confluence and incubated with 10 μg/ml mitomycin C for 2 h, before a scratch wound was introduced using a yellow pipette tip. Cells were further incubated in normal growth media and pictures were taken at 0 h, 14 h, 15 h, 22 h, or 48 h after wounding. Three non-overlapping fields were captured by Axiovert 135 microscope from Zeiss and cells migrated into the wound site were counted and presented as mean±SD.

Stat3 [7] = assay: Western blot of Stat3 expression in KF48 infected with retroviral Stat3 siRNAs; format: cell-based, human; conditions: KF48 infected with retrovirus expressing Stat3 siRNAs
Description: as §1
Western blot. Cells were either harvested in radioimmune precipitation assay (RIPA) buffer (150 mM NaCl, 50 mM Tris-HCl, pH 7.2, 1% deoxycholic acid, 1% Triton X-100, 0.25 mM EDTA, pH 8.0) containing protease inhibitor cocktail (Roche Diagnostics Corporation, Indianapolis, Ind., USA), or lysis buffer containing 150 mM NaCl, 10 mM Tris-HCl, pH 7.4, 0.5% Triton-X-100, 0.5% NP-40, 1 mM EDTA, 0.2 mM sodium vanadate, supplemented with protease inhibitor tablet. Total cell lysates were collected after centrifugation for 10 min at 4° C., and resolved in 7.5% or 10% polyacrylamide gel electrophoresis, and transferred to PVDF membranes (Bio-Rad Laboratories, Hercules, Calif., USA). The membranes were blotted with anti-phosphoTyr705 Stat3 antibody (1:1000 dilution; Cell Signaling, Beverly, Mass., USA) overnight at 4° C. overnight in PBS containing 1% BSA and 0.1% Tween 20, washed with PBS containing 0.2% Tween 20, and incubated with secondary anti-rabbit IgG antibody (1:2000 dilution; Sigma, Saint Louis, Mo., USA) for 1 h at room temperature, washed with PBS containing 0.2% Tween 20, followed by enhanced chemiluminescence (Amersham Biosciences, Buckinghamshire, UK) or Lumi-Light (Roche Diagnostics Corporation, Indianapolis, USA), and autoradiography. The membranes were stripped with Restore Western Blotting Stripping Buffer (Pierce, Rockford, Ill., USA) according to manufacturer's instructions and reblotted with anti-phosphoSer727 Stat3 (1:1000 dilution; Cell Signaling, Beverly, Mass., USA) and secondary anti-mouse IgG antibody (1:2000 dilution; Sigma, Saint Louis, Mo., USA). The stripping and reblotting procedure was repeated with monoclonal anti-Stat3 (1:1000 dilution; BD Transduction Laboratories), polyclonal anti-actin (1:1000 dilution; Sigma) and monoclonal anti-collagen antibody (1:1000 dilution; MONOSAN).

KF48 keloid fibroblasts [8] = assay: XTT proliferation assay; format: cell-based, human
Text: Inhibition of Stat3 decreases cell proliferation. Enhanced fibroblast proliferation is a characteristic of keloid tissue. In agreement with this, keloid fibroblasts grown in normal culture conditions proliferated faster than normal fibroblasts, as observed in KF48 and KF107 compared to NF2 and NF4 (FIG. 6A). To investigate whether Stat3 is involved in the enhanced keloid fibroblast proliferation, KF48 was infected with retrovirus expressing Stat3 siRNAs, and cell proliferation was examined. […] XTT proliferation assay. Cells seeded at 3,000 cells/well in 96-well plates and grown in normal growth conditions, or infected with retroviral Stat3 siRNAs, were assayed for proliferation using the XrT proliferation kit (Roche) according to the manufacturer's instructions. The readings were taken at 450 nm and referenced against 690 nm, 2 h after the addition of the XrT reagent. Each sample was performed at quadruplicates in two to three independent experiments. Data are presented as mean±SD
Cell proliferation was also investigated by treating KF48 cells with various doses of Cucurbitacin I or with DMSO control, before incubating in normal growth media and examined daily over 4 days. Cucurbitacin I concentration as low as I μM was able to inhibit cell proliferation of KF48 compared to DMSO and untreated control (0 μM), whereas Cucurbitacin I exposure at 5 μM and above seemed to cause cell death (FIG. 6C).

JAK2, sequence (O60674 whole entry, species assumed): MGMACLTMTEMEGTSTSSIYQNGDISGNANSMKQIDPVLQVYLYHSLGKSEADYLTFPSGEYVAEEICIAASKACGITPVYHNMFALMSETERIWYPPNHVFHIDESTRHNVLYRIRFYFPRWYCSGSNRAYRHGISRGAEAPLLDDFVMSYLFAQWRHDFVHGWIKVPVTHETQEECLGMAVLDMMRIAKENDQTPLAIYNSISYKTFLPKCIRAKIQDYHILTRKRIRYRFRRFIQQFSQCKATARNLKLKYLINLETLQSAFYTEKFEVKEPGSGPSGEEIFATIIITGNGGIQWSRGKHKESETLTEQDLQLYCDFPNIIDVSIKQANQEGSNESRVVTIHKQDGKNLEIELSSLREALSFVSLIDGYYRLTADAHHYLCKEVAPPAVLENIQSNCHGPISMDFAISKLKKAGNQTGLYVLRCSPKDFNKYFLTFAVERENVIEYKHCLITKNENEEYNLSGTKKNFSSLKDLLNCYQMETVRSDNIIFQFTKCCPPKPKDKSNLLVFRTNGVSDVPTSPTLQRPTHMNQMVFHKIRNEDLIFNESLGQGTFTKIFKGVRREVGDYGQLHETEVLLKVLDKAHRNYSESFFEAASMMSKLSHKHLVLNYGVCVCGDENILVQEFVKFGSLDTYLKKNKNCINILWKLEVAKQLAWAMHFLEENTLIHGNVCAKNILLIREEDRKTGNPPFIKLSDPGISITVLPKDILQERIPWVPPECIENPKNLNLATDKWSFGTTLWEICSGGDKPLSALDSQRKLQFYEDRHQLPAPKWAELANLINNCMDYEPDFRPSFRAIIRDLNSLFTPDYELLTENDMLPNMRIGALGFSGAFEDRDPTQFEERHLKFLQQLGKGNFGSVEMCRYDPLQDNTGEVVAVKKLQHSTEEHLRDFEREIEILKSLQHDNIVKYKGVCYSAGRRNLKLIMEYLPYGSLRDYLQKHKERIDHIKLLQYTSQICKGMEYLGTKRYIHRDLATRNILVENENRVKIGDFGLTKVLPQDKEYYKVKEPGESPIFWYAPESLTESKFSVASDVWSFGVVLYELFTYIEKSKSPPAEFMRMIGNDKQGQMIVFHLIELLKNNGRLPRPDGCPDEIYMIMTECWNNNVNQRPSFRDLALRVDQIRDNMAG
T1 sequence (P40763 whole entry, species assumed): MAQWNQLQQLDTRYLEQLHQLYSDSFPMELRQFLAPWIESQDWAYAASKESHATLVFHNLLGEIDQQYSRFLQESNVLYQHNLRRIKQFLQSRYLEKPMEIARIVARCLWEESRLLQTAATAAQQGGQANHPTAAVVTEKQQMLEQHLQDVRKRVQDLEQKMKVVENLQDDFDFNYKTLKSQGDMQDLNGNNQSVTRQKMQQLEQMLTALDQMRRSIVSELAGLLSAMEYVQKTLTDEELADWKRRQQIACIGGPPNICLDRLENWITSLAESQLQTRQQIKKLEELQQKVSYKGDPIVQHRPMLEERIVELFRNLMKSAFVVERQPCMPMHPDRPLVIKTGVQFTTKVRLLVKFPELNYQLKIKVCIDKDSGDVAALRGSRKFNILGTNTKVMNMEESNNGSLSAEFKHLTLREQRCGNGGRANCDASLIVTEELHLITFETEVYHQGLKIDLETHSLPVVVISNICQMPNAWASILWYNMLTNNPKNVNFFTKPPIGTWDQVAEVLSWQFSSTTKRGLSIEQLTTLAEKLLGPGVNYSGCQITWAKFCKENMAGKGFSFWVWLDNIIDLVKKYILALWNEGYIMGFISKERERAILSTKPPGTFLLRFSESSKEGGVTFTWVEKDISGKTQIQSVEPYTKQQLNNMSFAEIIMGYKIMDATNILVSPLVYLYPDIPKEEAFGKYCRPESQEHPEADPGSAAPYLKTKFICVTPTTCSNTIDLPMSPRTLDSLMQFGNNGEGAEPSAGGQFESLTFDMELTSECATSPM

Row | Compound | inhibition of activation of STAT 3 (Stat3 [1]) | inhibition of activation of JAK2 (JAK2) | inhibitory effect on Stat3 expression (Stat3 [4]) | cell migration, Transwell (KF48 keloid fibroblasts [5]) | rate of cell migration, scratch assay (KF48 keloid fibroblasts [6]) | inhibition of Stat3 expression (Stat3 [7]) | other results
1 | CC(=O)OC(C)(C)/C=C/C(=O)[C@](C)(O)[C@H]1[C@H](O)C[C@@]2(C)[C@@H]3CC=C4[C@@H](C[C@H](O)C(=O)C4(C)C)[C@]3(CO)C(=O)C[C@]12C [Cucurbitacin A] | not | inhibits | – | – | – | – | –
2 | CC(=O)OC(C)(C)/C=C/C(=O)[C@](C)(O)[C@H]1[C@H](O)C[C@@]2(C)[C@@H]3CC=C4[C@H](C[C@H](O)C(=O)C4(C)C)[C@]3(C)C(=O)C[C@]12C [Cucurbitacin B] | inhibit | inhibit | – | – | – | – | –
3 | CC(=O)OC(C)(C)/C=C/C(=O)[C@](C)(O)[C@H]1[C@H](O)C[C@@]2(C)[C@@H]3CC=C4[C@@H](C=C(O)C(=O)C4(C)C)[C@]3(C)C(=O)C[C@]12C [Cucurbitacin E] | inhibit | inhibit | – | – | – | – | –
4 | C[C@@H]1CC(=O)c2c(ccc3c2C(=O)c2cccc(O)c2C3=O)C1 [STA-21] | – | – | – | – | – | – | effect on cells in which constitutive Stat3 signaling is absent (breast carcinoma cells): minimal effect; survival of breast carcinoma cells with constitutive Stat3 signaling (breast carcinoma cells): reduces the survival; Stat3-dependent luciferase activity (Stat3 [2]): inhibits; Stat3 DNA binding activity (Stat3 [2]): inhibits; Stat3 dimerization (Stat3 [2]): inhibits
5 | Cucurbitacin Q | inhibits | not | – | – | – | – | –
6 | PY*L: tripeptide derivative of PY*LKTK, Y* represents phosphotyrosine (Pro-[pY]-Leu; UniProt P40763 704-706, looked up, fragment) | – | – | – | – | – | – | STAT 3 biochemical activity and biological function (Stat3 [3]): inhibit
7 | PY*LKTK: Stat3 SH2 domain-binding phosphopeptide, Y* represents phosphotyrosine (P[pY]LKTK; UniProt P40763 704-709, looked up, fragment) | – | – | – | – | – | – | levels of DNA binding activities of STAT 5 (STAT 5): no effect; STAT 3 biochemical activity and biological function (Stat3 [3]): inhibit; levels of DNA binding activities of STAT 3 (Stat3 [3]): significant reduction
8 | PYLKTK: non-phosphorylated control peptide of PY*LKTK (UniProt P40763 704-709, looked up, fragment) | – | – | – | – | – | – | levels of DNA binding activities of STAT 3 (Stat3 [3]): not
9 | Stat3 siRNA 1: siRNA target nt. 461-480 of STAT 3 (NM—139276), AGTCGAATGTTCTCTATCA, hairpin primers SEQ ID 4 and 5, retroviral vector | – | – | inhibitory effect | hinder the cell migration | impede the rate of cell migration | inhibit Stat3 expression | inhibition of collagen production (collagen): inhibition of collagen production
10 | Stat3 siRNA 2: siRNA target nt. 1264-1283 of STAT 3, GGCGTCCAGTTCACTACTA, hairpin primers SEQ ID 6 and 7, retroviral vector | – | – | inhibitory effect | hinder the cell migration | impede the rate of cell migration | inhibit Stat3 expression | inhibition of collagen production (collagen): inhibition of collagen production
11 | Stat3 siRNA 3: siRNA target nt. 364-383 of STAT 3, GATTGGGCATATGCGGCCA, retroviral vector; does not inhibit Stat3 | – | – | not | did not | did not | does not inhibit Stat3 | –
12 | Stat3 siRNA 4: siRNA target nt. 1662-1681 of STAT 3, GCGTCCATCCTGTGGTACA, hairpin primers SEQ ID 8 and 9, retroviral vector | – | – | inhibitory effect | hinder the cell migration | impede the rate of cell migration | inhibit Stat3 expression | inhibition of collagen production (collagen): inhibition of collagen production; relative effectiveness among the siRNAs tested (KF48 keloid fibroblasts [8]; keloid fibroblast collagen production, proliferation and migration): most effective; cell proliferation of KF48 (KF48 keloid fibroblasts [8]; retroviral Stat3 siRNA, vs noninfected, vector and Stat3 siRNA 3, FIG. 6B): decreased cell proliferation
